Literature values, collected in US9655859B2, “Accordion pill comprising levodopa for an improved treatment of Parkinson's disease symptoms” (INTEC PHARMA LTD., priority 2010, dated 2017).

Molecular target: T1, peripheral DOPA decarboxylase (Homo sapiens, UniProt P20711)
T1 construct: host or cells: endogenous enzyme of peripheral tissues in vivo
T1 sequence (P20711 1-480): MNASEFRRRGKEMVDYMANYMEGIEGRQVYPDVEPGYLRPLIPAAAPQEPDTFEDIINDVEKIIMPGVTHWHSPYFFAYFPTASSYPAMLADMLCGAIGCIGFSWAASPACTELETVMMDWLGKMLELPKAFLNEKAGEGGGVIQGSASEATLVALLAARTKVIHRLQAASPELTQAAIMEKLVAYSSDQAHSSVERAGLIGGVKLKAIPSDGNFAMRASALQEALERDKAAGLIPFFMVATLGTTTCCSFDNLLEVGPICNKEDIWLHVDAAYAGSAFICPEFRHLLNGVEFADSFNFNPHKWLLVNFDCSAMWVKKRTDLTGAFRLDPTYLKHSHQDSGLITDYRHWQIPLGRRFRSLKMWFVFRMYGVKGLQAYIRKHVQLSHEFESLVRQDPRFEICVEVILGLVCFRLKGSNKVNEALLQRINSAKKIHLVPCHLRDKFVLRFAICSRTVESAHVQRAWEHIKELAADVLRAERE
Conditions: studies cited

carbidopa amount saturating peripheral DOPA decarboxylase: 70 to 100 mg a day
Structure (SMILES): C[C@@](Cc1ccc(O)c(O)c1)(NN)C(=O)O [carbidopa]
